According to US9346809B2 (LEO PHARMA A/S, priority 2009, dated 2016):

Experiments:
Type in all cases: biochemical
[1] = biological target: T1, JAK2 (catalytic domain, His-tag) (Homo sapiens, UniProt O60674); assay: JAK kinase assay (HTRF, phosphorylation of TK substrate-biotin), JAK2; conditions: ATP at Km (4 μM); read-out: JAK2 kinase inhibitory activity (EC50 indicator)
T1 construct: All four purified enzymes contain only the catalytic domain; His (N); purchased Carna Biosciences, Inc; host or cells: baculovirus expression system
In short: (§1)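 EC50 values come from HTRF detection of phospho-biotin-TK peptide (1 μM) after 20-30 min RT reactions in Hepes pH 7.0 buffer with 0.75% DMSO. ATP was at Km for each enzyme: 7 μM JAK1, 4 μM JAK2, 2 μM JAK3, 13 μM TYK2. SEB (50 nM) was added for JAK1 and TYK2 only.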

[2] = biological target: T2, JAK3 (catalytic domain, His-tag) (Homo sapiens, UniProt P52333); assay: JAK kinase assay (HTRF, phosphorylation of TK substrate-biotin), JAK3; conditions: ATP at Km (2 μM); read-out: JAK3 kinase inhibitory activity (EC50 indicator)
T2 construct: All four purified enzymes contain only the catalytic domain; His (N); purchased Carna Biosciences, Inc; host or cells: baculovirus expression system
In short: as §1

[3] = biological target: T3, TYK2 (aa 871-1187, catalytic domain, GST-tag) (Homo sapiens, UniProt P29597); assay: JAK kinase assay (HTRF, phosphorylation of TK substrate-biotin), TYK2; conditions: ATP at Km (13 μM); read-out: TYK2 kinase inhibitory activity (EC50 indicator)
T3 construct: JAK1 (aa 850-1154) and TYK2 (aa 871-1187) are expressed with an N-terminally fused GST-tag; GST (N); purchased Carna Biosciences, Inc; host or cells: baculovirus expression system
T3 sequence (P29597 871-1187): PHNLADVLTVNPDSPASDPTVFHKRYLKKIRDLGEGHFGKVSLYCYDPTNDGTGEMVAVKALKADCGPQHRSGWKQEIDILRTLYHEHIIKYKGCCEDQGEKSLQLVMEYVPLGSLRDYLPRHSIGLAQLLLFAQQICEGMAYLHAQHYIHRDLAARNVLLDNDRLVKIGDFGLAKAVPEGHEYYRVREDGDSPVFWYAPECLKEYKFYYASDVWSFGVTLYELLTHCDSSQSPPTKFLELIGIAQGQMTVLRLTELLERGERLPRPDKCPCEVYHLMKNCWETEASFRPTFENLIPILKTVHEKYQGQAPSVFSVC
In short: as §1

[4] = biological target: T4, JAK1 (aa 850-1154, catalytic domain, GST-tag) (Homo sapiens, UniProt P23458); assay: JAK kinase assay (HTRF, phosphorylation of TK substrate-biotin), JAK1; conditions: ATP at Km (7 μM); read-out: JAK1 kinase inhibitory activity (EC50 indicator)
T4 construct: JAK1 (aa 850-1154) and TYK2 (aa 871-1187) are expressed with an N-terminally fused GST-tag; GST (N); purchased Carna Biosciences, Inc; host or cells: baculovirus expression system
In short: as §1

T4 sequence (P23458 850-1154): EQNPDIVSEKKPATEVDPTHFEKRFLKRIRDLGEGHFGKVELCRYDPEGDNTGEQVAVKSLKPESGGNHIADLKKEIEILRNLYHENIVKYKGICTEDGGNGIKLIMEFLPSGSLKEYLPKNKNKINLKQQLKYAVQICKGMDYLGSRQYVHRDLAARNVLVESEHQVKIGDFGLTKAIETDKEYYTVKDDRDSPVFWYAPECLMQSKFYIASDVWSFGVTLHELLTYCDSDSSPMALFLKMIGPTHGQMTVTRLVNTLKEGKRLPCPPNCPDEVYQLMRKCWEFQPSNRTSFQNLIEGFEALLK
T1 sequence (O60674 849-1124 limits assumed): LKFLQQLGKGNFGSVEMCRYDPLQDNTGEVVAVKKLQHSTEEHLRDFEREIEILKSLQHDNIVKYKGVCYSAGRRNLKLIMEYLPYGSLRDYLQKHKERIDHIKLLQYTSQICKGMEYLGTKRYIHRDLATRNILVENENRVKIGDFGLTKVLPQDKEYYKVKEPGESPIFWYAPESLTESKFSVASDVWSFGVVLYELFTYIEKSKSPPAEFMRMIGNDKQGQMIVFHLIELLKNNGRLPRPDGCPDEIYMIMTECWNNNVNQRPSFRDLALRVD
T2 sequence (P52333 822-1111 limits assumed): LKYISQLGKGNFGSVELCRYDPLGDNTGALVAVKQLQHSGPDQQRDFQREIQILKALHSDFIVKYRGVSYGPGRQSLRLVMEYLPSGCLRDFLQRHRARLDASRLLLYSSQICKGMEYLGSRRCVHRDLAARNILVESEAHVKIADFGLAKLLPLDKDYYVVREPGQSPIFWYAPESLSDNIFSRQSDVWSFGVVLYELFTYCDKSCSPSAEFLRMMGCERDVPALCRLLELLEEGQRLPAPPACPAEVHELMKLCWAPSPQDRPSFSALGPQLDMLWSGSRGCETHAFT

Row | Compound | EC50 [1] | EC50 [2] | EC50 [3] | EC50 [4]
1 | Cc1cc2[nH]c(C(=O)N3[C@@H]4CC[C@H]3CN(c3ncnc5[nH]ccc35)C4)cc2cc1F [Example 110, (5-Fluoro-6-methyl-1H-indol-2-yl)-[3-(7H-pyrrolo[2,3-d]pyrimidin-4-yl)-3,8-diaza-bicyclo[3.2.1]oct-8-yl]-methanone] | 100 to 500 nM | 100 to 500 nM | > 500 nM | < 100 nM
2 | N#CCCC(=O)N1CCN(c2ccnc3[nH]ccc23)CC12CC2 [Example 116, 4-Oxo-4-[7-(1H-pyrrolo[2,3-b]pyridin-4-yl)-4,7-diaza-spiro[2.5]oct-4-yl]-butyronitrile] | 100 to 500 nM | 100 to 500 nM | > 500 nM | 100 to 500 nM
3 | N#CC1(C(=O)N2CCN(c3ccnc4[nH]ccc34)CC23CC3)CC1 [Example 117, 1-[7-(1H-Pyrrolo[2,3-b]pyridin-4-yl)-4,7-diaza-spiro[2.5]octane-4-carbonyl]-cyclopropanecarbonitrile] | 100 to 500 nM | 100 to 500 nM | > 500 nM | 100 to 500 nM
4 | Cc1c[nH]c2ncnc(N3CCN(C(=O)c4ccc(C#N)cc4)C4(CC4)C3)c12 [Example 118, 4-[7-(5-Methyl-7H-pyrrolo[2,3-d]pyrimidin-4-yl)-4,7-diaza-spiro[2.5]octane-4-carbonyl]-benzonitrile] | > 500 nM | > 500 nM | > 500 nM | > 500 nM
5 | Cc1c[nH]c2ncnc(N3CCN(C(=O)c4cccc(C#N)c4)C4(CC4)C3)c12 [Example 119, 3-[7-(5-Methyl-7H-pyrrolo[2,3-d]pyrimidin-4-yl)-4,7-diaza-spiro[2.5]octane-4-carbonyl]-benzonitrile] | > 500 nM | > 500 nM | > 500 nM | > 500 nM
6 | Cc1c[nH]c2ncnc(N3CCN(C(=O)c4cnc5ccccc5n4)C4(CC4)C3)c12 [Example 120, [7-(5-Methyl-7H-pyrrolo[2,3-d]pyrimidin-4-yl)-4,7-diaza-spiro[2.5]oct-4-yl]-quinoxalin-2-yl-methanone] | > 500 nM | > 500 nM | > 500 nM | > 500 nM
7 | COC(=O)c1cc2c(N3CCN(C(=O)Cc4cccc(CC#N)c4)C4(CC4)C3)ncnc2[nH]1 [Example 121, 4-{4-[2-(3-Cyanomethyl-phenyl)-acetyl]-4,7-diaza-spiro[2.5]oct-7-yl}-7H-pyrrolo[2,3-d]pyrimidine-6-carboxylic acid methyl ester] | > 500 nM | > 500 nM | > 500 nM | > 500 nM
8 | COC(=O)c1cc2c(N3CCN(C(=O)Cc4ccc(CC#N)cc4)C4(CC4)C3)ncnc2[nH]1 [Example 122, 4-{4-[2-(4-Cyanomethyl-phenyl)-acetyl]-4,7-diaza-spiro[2.5]oct-7-yl}-7H-pyrrolo[2,3-d]pyrimidine-6-carboxylic acid methyl ester] | > 500 nM | > 500 nM | > 500 nM | > 500 nM
9 | COC(=O)c1cc2c(N3CCN(C(=O)Cc4cccc(C#N)c4)C4(CC4)C3)ncnc2[nH]1 [Example 123, 4-{4-[2-(3-Cyano-phenyl)-acetyl]-4,7-diaza-spiro[2.5]oct-7-yl}-7H-pyrrolo[2,3-d]pyrimidine-6-carboxylic acid methyl ester] | > 500 nM | > 500 nM | > 500 nM | > 500 nM
10 | COC(=O)c1cc2c(N3CCN(C(=O)Cc4ccc(C#N)cc4)C4(CC4)C3)ncnc2[nH]1 [Example 124, 4-{4-[2-(4-Cyano-phenyl)-acetyl]-4,7-diaza-spiro[2.5]oct-7-yl}-7H-pyrrolo[2,3-d]pyrimidine-6-carboxylic acid methyl ester] | > 500 nM | > 500 nM | > 500 nM | > 500 nM

Now from value to molecule:

Row | EC50 [1] | EC50 [2] | EC50 [3] | EC50 [4] | Compound
11 | < 100 nM | < 100 nM | > 500 nM | < 100 nM | COc1cc(C(=O)N2[C@@H]3CC[C@H]2CN(c2ncnc4[nH]ccc24)C3)cs1 [Example 108, (5-Methoxy-thiophen-3-yl)-[3-(7H-pyrrolo[2,3-d]pyrimidin-4-yl)-3,8-diaza-bicyclo[3.2.1]oct-8-yl]-methanone]
12 | < 100 nM | 100 to 500 nM | > 500 nM | < 100 nM | O=C(Cc1cccs1)N1[C@@H]2CC[C@H]1CN(c1ncnc3[nH]ccc13)C2 [Example 109, 1-[3-(7H-Pyrrolo[2,3-d]pyrimidin-4-yl)-3,8-diaza-bicyclo[3.2.1]oct-8-yl]-2-thiophen-2-yl-ethanone]
13 | < 100 nM | 100 to 500 nM | > 500 nM | < 100 nM | CC(=O)c1cc(C(=O)N2[C@@H]3CC[C@H]2CN(c2ncnc4[nH]ccc24)C3)cs1 [Example 112, 1-{4-[3-(7H-Pyrrolo[2,3-d]pyrimidin-4-yl)-3,8-diaza-bicyclo[3.2.1]octane-8-carbonyl]-thiophen-2-yl}-ethanone]
14 | < 100 nM | 100 to 500 nM | > 500 nM | 100 to 500 nM | N#Cc1ccccc1CC(=O)N1CCN(c2ncnc3[nH]ccc23)CC12CC2 [Example 113, 2-{2-Oxo-2-[7-(7H-pyrrolo[2,3-d]pyrimidin-4-yl)-4,7-diaza-spiro[2.5]oct-4-yl]-ethyl}-benzonitrile]
15 | < 100 nM | 100 to 500 nM | > 500 nM | 100 to 500 nM | N#CC1(C(=O)N2CCN(c3ncnc4[nH]ccc34)CC23CC3)CCCC1 [Example 114, 1-[7-(7H-Pyrrolo[2,3-d]pyrimidin-4-yl)-4,7-diaza-spiro[2.5]octane-4-carbonyl]-cyclopentanecarbonitrile]
16 | < 100 nM | < 100 nM | > 500 nM | < 100 nM | N#Cc1ccc(CC(=O)N2CCN(c3ccnc4[nH]ccc34)CC23CC3)cc1 [Example 115, 4-{2-Oxo-2-[7-(1H-pyrrolo[2,3-b]pyridin-4-yl)-4,7-diaza-spiro[2.5]oct-4-yl]-ethyl}-benzonitrile]
17 | < 100 nM | 100 to 500 nM | > 500 nM | < 100 nM | O=C(C1Cc2ccccc21)N1CCN(c2ncnc3[nH]ccc23)CC12CC2 (centres unmarked) [Example 125, Bicyclo[4.2.0]octa-1(6),2,4-trien-7-yl-[7-(7H-pyrrolo[2,3-d]pyrimidin-4-yl)-4,7-diaza-spiro[2.5]oct-4-yl]-methanone]
18 | < 100 nM | 100 to 500 nM | > 500 nM | < 100 nM | O=C1CC(C(=O)N2CCN(c3ncnc4[nH]ccc34)CC23CC3)c2ccccc21 (centres unmarked) [Example 126, 3-[7-(7H-Pyrrolo[2,3-d]pyrimidin-4-yl)-4,7-diaza-spiro[2.5]octane-4-carbonyl]-indan-1-one]
19 | < 100 nM | < 100 nM | > 500 nM | < 100 nM | NS(=O)(=O)c1cc(OCC(=O)N2C3CCC2CN(c2ncnc4[nH]ccc24)C3)ccc1Cl [Example 127, 2-Chloro-5-{2-oxo-2-[3-(7H-pyrrolo[2,3-d]pyrimidin-4-yl)-3,8-diaza-bicyclo[3.2.1]oct-8-yl]-ethoxy}-benzenesulfonamide]
20 | < 100 nM | 100 to 500 nM | > 500 nM | < 100 nM | N#Cc1ccc(C(=O)C(=O)N2C3CCC2CN(c2ncnc4[nH]ccc24)C3)cc1 [Example 128, 4-{2-Oxo-2-[3-(7H-pyrrolo[2,3-d]pyrimidin-4-yl)-3,8-diaza-bicyclo[3.2.1]oct-8-yl]-acetyl}-benzonitrile]
21 | < 100 nM | < 100 nM | > 500 nM | < 100 nM | N#Cc1ccc2[nH]c(C(=O)N3C4CCC3CN(c3ncnc5[nH]ccc35)C4)cc2c1 [Example 129, 2-[3-(7H-Pyrrolo[2,3-d]pyrimidin-4-yl)-3,8-diaza-bicyclo[3.2.1]octane-8-carbonyl]-1H-indole-5-carbonitrile]
22 | < 100 nM | < 100 nM | 100 to 500 nM | < 100 nM | CS(=O)(=O)c1ccc2[nH]c(C(=O)N3C4CCC3CN(c3ncnc5[nH]ccc35)C4)cc2c1 [Example 130, (5-Methanesulfonyl-1H-indol-2-yl)-[3-(7H-pyrrolo[2,3-d]pyrimidin-4-yl)-3,8-diaza-bicyclo[3.2.1]oct-8-yl]-methanone]
23 | < 100 nM | 100 to 500 nM | 100 to 500 nM | < 100 nM | CS(=O)(=O)c1ccc(C(=O)N2C3CCC2CN(c2ncnc4[nH]ccc24)C3)cc1F [Example 131, (3-Fluoro-4-methanesulfonyl-phenyl)-[3-(7H-pyrrolo[2,3-d]pyrimidin-4-yl)-3,8-diaza-bicyclo[3.2.1]oct-8-yl]-methanone]
